Results published in US20220033364A1, “INSECTICIDAL COMPOUNDS” (SYNGENTA CROP PROTECTION AG, priority 2018, published 2022).

Legend:
Type in all cases: in vivo
Spodoptera littoralis = Spodoptera littoralis (Egyptian cotton leaf worm) cotton leaf disc test; conditions: foliar, 72 h, spray on cotton leaf discs, L1 larvae, 3 days after infestation, read-out: control (mortality, anti-feeding effect or growth inhibition)
Protocol: Cotton leaf discs were placed onto agar in 24-well microtiter plates and sprayed with aqueous test solutions prepared from 10′000 ppm DMSO stock solutions. After drying the leaf discs were infested with five L1 larvae. The samples were assessed for mortality, anti-feeding effect, and growth inhibition in comparison to untreated samples 3 days after infestation. Control of Spodoptera littoralis by a test sample is given when at least one of the categories mortality, anti-feedant effect, and growth inhibition is higher than the untreated sample.

Diabrotica balteata = Diabrotica balteata (corn root worm) maize sprout spray test; conditions: 96 h, spray on maize sprouts, L2 larvae, 4 days after infestation, read-out: effect in at least one of the two categories (mortality or growth inhibition)
Protocol: Maize sprouts placed onto an agar layer in 24-well microtiter plates were treated with aqueous test solutions prepared from 10′000 ppm DMSO stock solutions by spraying. After drying, the plates were infested with L2 larvae (6 to 10 per well). The samples were assessed for mortality and growth inhibition in comparison to untreated samples 4 days after infestation.

Plutella xylostella [1] = assay: Plutella xylostella (diamond back moth) artificial diet test, L2 larvae; conditions: 120 h, 5 days after infestation, read-out: effect in at least one of the two categories (mortality or growth inhibition)
Protocol: (§1) 24-well microtiter plates with artificial diet were treated with aqueous test solutions prepared from 10′000 ppm DMSO stock solutions by pipetting. After drying, the plates were infested with L2 larvae (10 to 15 per well). The samples were assessed for mortality and growth inhibition in comparison to untreated samples 5 days after infestation.

Euschistus heros = Euschistus heros (neotropical brown stink bug) soybean leaf spray test; conditions: 120 h, spray on soybean leaves, N2 nymphs, 5 days after infestation, read-out: effect in at least one of the two categories (mortality or growth inhibition)
Protocol: Soybean leaves on agar in 24-well microtiter plates were sprayed with aqueous test solutions prepared from 10′000 ppm DMSO stock solutions. After drying the leaves were infested with N2 nymphs. The samples were assessed for mortality and growth inhibition in comparison to untreated samples 5 days after infestation.

Thrips tabaci = Thrips tabaci (onion thrips) feeding/contact activity; conditions: foliar, 144 h, spray on sunflower leaf discs, mixed ages, 6 days after infestation
Protocol: (§2) Sunflower leaf discs were placed on agar in 24-well microtiter plates and sprayed with aqueous test solutions prepared from 10′000 ppm DMSO stock solutions. After drying the leaf discs were infested with a thrips population of mixed ages. The samples were assessed for mortality 6 days after infestation.

Tetranychus urticae = Tetranychus urticae (two-spotted spider mite) feeding/contact activity; conditions: foliar, 192 h, spray on bean leaf discs, mixed population (mobile stages), 8 days after infestation
Protocol: as §2, with “Bean” for “Sunflower”, “discs” for “discs were placed”, “were” for “and”, “mite” for “thrips”, “on mixed population (mobile stages) 8” for “6”

Myzus persicae = Myzus persicae (green peach aphid) feeding/contact activity; conditions: foliar, 144 h, spray on sunflower leaf discs, mixed ages, 6 days after infestation
Protocol: Sunflower leaf discs were placed onto agar in a 24-well microtiter plate and sprayed with aqueous test solutions prepared from 10′000 ppm DMSO stock solutions. After drying, the leaf discs were infested with an aphid population of mixed ages. The samples were assessed for mortality 6 days after infestation.

Plutella xylostella [2] = assay: Plutella xylostella (diamond back moth) artificial diet test, eggs; conditions: 192 h, 8 days after infestation, read-out: effect in at least one of the two categories (mortality or growth inhibition)
Protocol: as §1, with “drying, Plutella eggs were pipetted through a plastic stencil onto a gel blotting paper and” for “drying,”, “plate was closed” for “plates were infested”, “it.” for “L2 larvae (10 to 15 per well).”, “8” for “5”

Cc1cc(C2=NO[C@@](c3cc(Cl)c(F)c(Cl)c3)(C(F)(F)F)C2)ccc1C(=O)N(C(=O)C1CC1)[C@H]1CON(S(=O)(=O)C(F)F)C1 [Compound A1, N-(cyclopropanecarbonyl)-4-[(5S)-5-(3,5-dichloro-4-fluoro-phenyl)-5-(trifluoromethyl)-4H-isoxazol-3-yl]-N-[(4R)-2-(difluoromethylsulfonyl)isoxazolidin-4-yl]-2-methyl-benzamide]
≥ 80%: percent control (mortality, anti-feedant effect or growth inhibition) at 200 ppm (Spodoptera littoralis) | percent effect (mortality or growth inhibition) at 200 ppm (Diabrotica balteata) | percent effect (mortality or growth inhibition) at 200 ppm (Plutella xylostella [1]) | percent effect (mortality or growth inhibition) at 200 ppm (Euschistus heros) | mortality at 200 ppm (Thrips tabaci) | mortality at 200 ppm (Tetranychus urticae) | mortality at 200 ppm (Myzus persicae)

Cc1cc(C2=NO[C@@](c3cc(Cl)c(F)c(Cl)c3)(C(F)(F)F)C2)ccc1C(=O)N(COC1CC1)[C@H]1CON(S(=O)(=O)C(F)F)C1 [Compound A2, N-(cyclopropoxymethyl)-4-[(5S)-5-(3,5-dichloro-4-fluoro-phenyl)-5-(trifluoromethyl)-4H-isoxazol-3-yl]-N-[(4R)-2-(difluoromethylsulfonyl)isoxazolidin-4-yl]-2-methyl-benzamide]
≥ 80%: percent control (mortality, anti-feedant effect or growth inhibition) at 200 ppm (Spodoptera littoralis) | percent effect (mortality or growth inhibition) at 200 ppm (Euschistus heros) | percent effect (mortality or growth inhibition) at 200 ppm (Plutella xylostella [2])
